Measurements taken from publication PMC9237417, “HupZ, a Unique Heme-Binding Protein, Enhances Group A Streptococcus Fitness During Mucosal Colonization” (Frontiers in Cellular and Infection Microbiology, 2022).

Experiments:
MBP-HupZ = molecular target: T1, MBP-HupZ (Streptococcus pyogenes, UniProt Q9A0B9); assay: UV-VIS Soret shift of heme-loaded protein; format: binding; conditions: holo protein (heme b bound); 1.6 mM imidazole as axial ligand of the heme iron; pH 7.4
T1 construct: gene SPy_0844; N-terminal MBP fusion kept (pKV135); E. coli BL21(DE3); monomer on native PAGE
T1 sequence (Q9A0B9 entry or part of it): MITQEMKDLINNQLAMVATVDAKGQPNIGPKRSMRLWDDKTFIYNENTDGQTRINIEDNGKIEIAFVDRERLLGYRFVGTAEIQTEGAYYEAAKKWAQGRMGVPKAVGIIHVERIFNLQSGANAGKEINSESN

tag-less HupZ = molecular target: T2, tag-less HupZ (Streptococcus pyogenes, UniProt Q9A0B9); assay: UV-VIS Soret shift of heme-loaded protein; format: binding; conditions: holo protein (heme b bound); 1.6 mM imidazole as axial ligand of the heme iron; pH 7.4
T2 construct: gene SPy_0844; full-length HupZ from His-MBP-HupZ, tag cut by TEV protease leaving a serine residue; expressed in E. coli; 15 kD on SDS-PAGE
T2 sequence (Q9A0B9 entry or part of it): as above

c1c[nH]cn1 [imidazole]
UV-VIS Soret shift of heme-loaded protein (MBP-HupZ): exogenous imidazole can coordinate the iron in holo tag-less and MBP-HupZ | UV-VIS Soret shift of heme-loaded protein (tag-less HupZ): exogenous imidazole can coordinate the iron in holo tag-less and MBP-HupZ
